Assay results reported in PubChem BioAssay (NCI).
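Protocol summary: plate cells (96-well), add compound at 5 concentrations, incubate 48 h, interpolate endpoints linearly. GI50 marks 50% less growth. TGI marks complete inhibition of growth.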

Assays:
Assay in all cases: inhibition of tumour cell growth, NCI panel, 48 h
MALME-3M melanoma = system: MALME-3M melanoma
SNB-19 CNS = system: SNB-19 CNS
ACHN renal = system: ACHN renal
SF-539 CNS = system: SF-539 CNS
OVCAR-3 ovarian = system: OVCAR-3 ovarian
RPMI-8226 leukemia = system: RPMI-8226 leukemia
KM12 colon = system: KM12 colon
HOP-92 NSCLC = system: HOP-92 NSCLC
SNB-75 CNS = system: SNB-75 CNS
NCI/ADR-RES ovarian = system: NCI/ADR-RES ovarian

Row | SMILES | TGI (MALME-3M melanoma) | TGI (SNB-19 CNS) | TGI (ACHN renal) | TGI (SF-539 CNS) | TGI (OVCAR-3 ovarian) | TGI (RPMI-8226 leukemia) | TGI (KM12 colon) | TGI (HOP-92 NSCLC) | TGI (SNB-75 CNS) | GI50 (MALME-3M melanoma) | GI50 (NCI/ADR-RES ovarian) | TGI (NCI/ADR-RES ovarian) | GI50 (SNB-19 CNS) | GI50 (ACHN renal) | GI50 (HOP-92 NSCLC) | GI50 (SF-539 CNS) | GI50 (OVCAR-3 ovarian) | GI50 (SNB-75 CNS) | GI50 (KM12 colon) | GI50 (RPMI-8226 leukemia)
1 | C[N+](C)(C)CC(=O)N/N=C(/Cc1cc(=O)oc2cc(O)ccc12)C(=O)Nc1ccc(Cl)cc1 | > 100 µM | > 100 µM | > 100 µM | > 100 µM | > 100 µM | > 100 µM | > 100 µM |  |  |  |  |  |  |  |  |  |  |  |  | 
2 | CN1Nc2ccccc2CC1=O | > 100 µM | > 100 µM | > 100 µM | > 100 µM | > 100 µM | > 100 µM | > 100 µM | > 100 µM | > 100 µM |  |  |  |  |  |  |  |  |  |  | 
3 | COc1cc(OC)c(OC)cc1/C=N/NC(=O)N/N=C/c1cc(OC)c(OC)cc1OC | > 100 µM | > 100 µM | > 100 µM | > 100 µM | > 100 µM | > 100 µM | > 100 µM | > 100 µM | 52.3 µM |  |  |  |  |  |  |  |  |  |  | 
4 | COCOCCC#CCO | > 100 µM | > 100 µM | > 100 µM | > 100 µM | > 100 µM | > 100 µM | > 100 µM | > 100 µM | > 100 µM |  |  |  |  |  |  |  |  |  |  | 
5 | Cc1nc2sccn2c1-c1nc2sccn2c1/C=C1/C(=O)Nc2ccccc21 | 70.5 µM | 23.9 µM | > 100 µM | 15.6 µM | 6.24 µM |  | 14.6 µM | 10.2 µM | 16 µM | 3.26 µM | 9.08 µM | > 100 µM | 3.52 µM | 7.72 µM | 1.4 µM | 3.72 µM | 1.7 µM | 2.38 µM | 1.76 µM | 
6 | CC12c3ccccc3C(OC=O)(c3ccccc31)C1(C)c3ccccc3C2(OC=O)c2ccccc21 | > 100 µM | > 100 µM | > 100 µM |  | > 100 µM | > 100 µM | > 100 µM | > 100 µM | > 100 µM |  |  |  |  |  |  |  |  |  |  | 
7 | CCCCCCCCc1cc2c(O)c(c1)Cc1cc(CCCCCCCC)cc(c1O)Cc1cc(CCCCCCCC)cc(c1O)Cc1cc(CCCCCCCC)cc(c1O)Cc1cc(CCCCCCCC)cc(c1O)Cc1cc(CCCCCCCC)cc(c1O)C2 | > 100 µM | > 100 µM | > 100 µM | > 100 µM |  |  | > 100 µM | > 100 µM | > 100 µM |  |  |  |  |  |  |  |  |  |  | 
8 | CNc1nc(N)nc(Nc2ccc(I)cc2)c1N=O | > 100 µM | > 100 µM | > 100 µM | > 100 µM | > 100 µM | > 100 µM | > 100 µM |  | > 100 µM |  |  | > 100 µM |  |  |  |  |  |  |  | 
9 | O=C1c2cccc3cccc(c23)C(=O)N1CCN(CCO)CCO | 46.3 µM | > 100 µM | 67.5 µM | 86.5 µM | > 100 µM | 56.4 µM | > 100 µM | 83 µM | > 100 µM |  |  |  |  |  |  |  |  |  |  | 
10 | O/N=C1\CCCCC1C(NO)c1ccccc1 (centres undefined) | > 100 µM | > 100 µM | > 100 µM | > 100 µM | > 100 µM | > 100 µM | > 100 µM | > 100 µM | > 100 µM |  |  |  |  |  |  |  |  |  |  | 
11 | Cc1cc2c(cc1C)[n+](=O)cc(C(=O)C/C(=N/NC(=S)NN)C(=O)Nc1cccc(C(F)(F)F)c1)n2[O-] | > 100 µM | > 100 µM | > 100 µM | > 100 µM | > 100 µM | > 100 µM | > 100 µM | > 100 µM | > 100 µM |  |  |  |  |  |  |  |  |  |  | 
12 | O=S(=O)(OI(OI(OS(=O)(=O)C(F)(F)F)c1ccccc1)c1ccccc1)C(F)(F)F | > 100 µM | > 100 µM | > 100 µM | > 100 µM | > 100 µM | > 100 µM | > 100 µM |  | > 100 µM |  |  |  |  |  |  |  |  |  |  | 
13 | CCOC(=O)Nc1c(C)nc2ccccn12 | > 100 µM | > 100 µM | > 100 µM | > 100 µM | > 100 µM | > 100 µM | > 100 µM | > 100 µM | > 100 µM | > 100 µM |  |  | > 100 µM | > 100 µM | > 100 µM | > 100 µM | > 100 µM | > 100 µM | > 100 µM | > 100 µM
14 | O=C1C=C(Nc2ccc(Cl)cc2C(=O)c2ccccc2)c2ccccc2C1=O | > 100 µM | > 100 µM | > 100 µM | > 100 µM | > 100 µM |  | > 100 µM |  | > 100 µM |  |  |  |  |  |  |  |  |  |  | 
15 | CCCCCCCC(=O)OCC1OC(n2cc(F)c(=O)[nH]c2=O)C(N)C(OC(=O)CCCCCCC)C1O (centres undefined) | 36.9 µM | 32 µM | 37.9 µM | 36.1 µM | 41.2 µM | 53.5 µM | 42.3 µM | 34.3 µM | 28.4 µM |  |  |  |  |  |  |  |  |  |  | 
16 | CC[C@@H]1NC(C(=O)OC)Cc2c1[nH]c1ccccc21 (some centres undefined) | > 100 µM | > 100 µM | > 100 µM | > 100 µM | > 100 µM |  | > 100 µM | > 100 µM | > 100 µM |  |  |  |  |  |  |  |  |  |  | 
17 | CC(=O)N/C(=C\c1ccccc1/C=C(\NC(C)=O)c1nc2cc(C)c(C)cc2[nH]1)c1nc2cc(C)c(C)cc2[nH]1 | 54.2 µM | > 100 µM | 28.4 µM | 44.3 µM | 35.7 µM | 64.7 µM | > 100 µM | 62.1 µM | > 100 µM |  |  |  |  |  |  |  |  |  |  | 
18 | O=Cc1cc2c(cc1-c1cc3c(cc1C=O)OCO3)OCO2 | > 100 µM | > 100 µM | > 100 µM | > 100 µM | > 100 µM | > 100 µM | > 100 µM | > 100 µM | > 100 µM |  |  |  |  |  |  |  |  |  |  | 
19 | O=C1C=C(c2c(O)ccc3ccccc23)c2cc(O)ccc2C1=O | 34.2 µM | 31.3 µM | 31.5 µM | 39.3 µM | 22.5 µM | > 100 µM | 31.5 µM | 31.9 µM | 42.6 µM |  |  |  |  |  |  |  |  |  |  | 
20 | COc1ccc(Cl)cc1NC(=O)c1ccc(NC2=C(Cl)C(=O)N(Cc3ccccc3)C2=O)cc1 | > 100 µM | > 100 µM | > 100 µM | > 100 µM | > 100 µM |  | > 100 µM |  |  | > 100 µM | 55.1 µM | > 100 µM | > 100 µM | 94.2 µM |  | > 100 µM | 36.3 µM |  | 64.4 µM | 
